Assay results: the CheMixHub viscosity set

Assay: xn = mol fraction of the nth substance listed

O=C(O)c1ccccc1C(=O)O + CCCCO
viscosity [mPa·s]
Conditions	308.15 K	313.15 K	318.15 K	323.15 K
101 kPa, x1 = 0.021	–	–	1.806	1.604
101 kPa, x1 = 0.032	–	–	1.928	1.712
101 kPa, x1 = 0.039	–	–	1.985	1.78
101.33 kPa, x1 = 0.021	2.302	2.033	1.806	1.604
101.33 kPa, x1 = 0.032	–	2.18	1.928	1.712

O=Cc1ccccc1 + CCCO
Conditions	viscosity [mPa·s]
308.15 K, 101 kPa, x2 = 0.8022	1.215

O=Cc1ccccc1 + CCO
298.15 K, 101.33 kPa
Conditions	viscosity [mPa·s]
x1 = 0.05414	1.092
x1 = 0.08518	1.052
x1 = 0.1016	1.05
x1 = 0.1182	1.051
x1 = 0.1595	1.031
x1 = 0.1727	1.041
x1 = 0.3372	1.158
x1 = 0.6248	1.308
x1 = 0.8076	1.362

CCCCCCCCCCCCO + C=CC(=O)OCC
viscosity [mPa·s], 101.3 kPa
Conditions	x2 = 0.0932	x2 = 0.2669	x2 = 0.3351	x2 = 0.4687	x2 = 0.5769	x2 = 0.7542	x2 = 0.8231	x2 = 0.8907	x2 = 0.9643	x2 = 0.9743
298.15 K	11.28	6.404	5.497	3.183	2.253	1.192	0.963	0.74	0.584	0.565
308.15 K	10.08	4.772	4.182	2.515	1.748	0.997	0.792	0.633	0.512	0.497

C=C(C)C(=O)OCCCCCCC + c1ccccc1
viscosity [mPa·s], 101 kPa
Conditions	x1 = 0.002	x1 = 0.004	x1 = 0.01	x1 = 0.02
303 K	0.5525	0.5621	0.5849	0.5828
313 K	0.4874	0.4915	0.5123	0.5115
323 K	0.4321	0.4362	0.4518	0.4535

c1ccc(Nc2ccccc2)cc1 + CCN(CC)c1ccccc1
viscosity [mPa·s], 101 kPa
Conditions	x1 = 0.1169	x1 = 0.2161	x1 = 0.4308	x1 = 0.5654	x1 = 0.6688	x1 = 0.7545	x1 = 0.8327	x1 = 0.949
298.15 K	2.41	2.98	4.63	6.52	8.13	–	–	–
323.15 K	1.35	1.58	2.22	2.9	3.31	3.82	4.49	5.4

CCCCCCCCCCCCO + CCCCCCCCCCCO
viscosity [mPa·s], 101.8 kPa
Conditions	x2 = 0.105	x2 = 0.3165	x2 = 0.5196	x2 = 0.7165	x2 = 0.9076
298.15 K	16.69	16.05	15.53	15	14.51
308.15 K	11.29	10.91	10.58	10.23	9.905
318.15 K	7.895	7.633	7.418	7.19	6.977

CCCC[N+](CCCC)(CCCC)CCCC.[Cl-] + CSCC[C@H](N)C(=O)O
Conditions	viscosity [mPa·s]
323.15 K, 101 kPa, x1 = 0.9	529
